Data set [1] is described as follows: Solubility of GLP-2/GLP-1 derivatives with respect to aqueous medium (PBS). In kind it is physicochemical. As to conditions: for solubility with respect to PBS (FIG. 1): freeze-dried 5-200 nmol/tube, PBS added, ultrasonic treatment, overnight, supernatant OD 280 nm. As to the method:
Samples were prepared by dispensing a Milli-Q aqueous solution of PAS-CPP-GLP-2 (no sugar), PAS-CPP-GLP-2 (5-sugar) or PAS-CPP-GLP-2 (11-sugar) to a microtube by an amount of 5 nmol/tube, 30 nmol/tube, 60 nmol/tube, 120 nmol/tube or 200 nmol/tube, and freeze-drying the same. The freeze-dried samples were added with […] of PBS (Dulbecco's Phosphate Buffered Saline; Sigma-Aldrich, herein after the same), subjected to ultrasonic treatment, and allowed to stand overnight. Thereafter, the concentration of the peptide was measured. Specifically, a supernatant obtained by centrifuging the sample suspension was subjected to the measurement of OD (280 nm) with a spectrometer (NanoDrop™ 2000c spectrometer; Thermo Fisher Scientific K.K.)
Administration solutions were prepared by mixing a PAS-CPP-GLP-2 derivative (no sugar) or a PAS-CPP-GLP-2 derivative (11-sugar) with PBS. […] The concentration of each GLP-2 derivative was adjusted to 0.6 nmol/4 μL.
The concentration of a PAS-CPP-GLP-2 derivative (no sugar) or a PAS-CPP-GLP-2 derivative (11-sugar) was adjusted to 3.0 nmol/4 μL.

A short description of data set [2]: Amount of migration to brain quantified by GLP-2 ELISA. As to conditions: in vivo, inhaled or intranasal, 6.0 nmol/mouse intranasal, brain isolated 20 minutes after administration, read-out: amount of GLP-2 derivative in brain. In kind it is in vivo. As to the method: Mice were intranasally administered with 16% DMSO or GLP-2 derivatives (6.0 nmol/mouse). The brain was isolated 20 minutes after the administration, and homogenized with BioMasher II (Nippi, Tokyo, Japan). A sample was prepared by performing centrifugal separation by 1000×g for 15 minutes and collecting a supernatant. The amount of a GLP-2 derivative in the sample was quantified using a GLP-2 ELISA kit. Specifically, a cleaning process including filling each well of a measurement plate with a cleaning fluid (350 μL) and suctioning the cleaning fluid with a pipette was performed three times. Subsequently, a labeled antigen solution (40 μL), a sample (25 μL) and a specific antibody solution (50 μL) were added in this order to the well and mixed. The measurement plate was tightly sealed and allowed to stand for 18 hours at 4° C. The cleaning process was performed three times, and a SA-HRP solution (100 μL) was added and allowed to permeate for 1.5 hours at room temperature (60 rpm). […] Finally, an enzyme reaction stop solution (100 μL) was added and an absorbance at 490 nm was measured with ARVO (PerkinElmer Japan Co., Ltd., Kanagawa, Japan) to calculate the concentration of a GLP-2 derivative.
Background: ELISA stands for enzyme-linked immunosorbent assay.

The nature of data set [3]: Observation of section of trigeminal lemniscus after intranasal administration. In kind it is in vivo. The settings on record: 3.0 nmol/mouse intranasal, 15 minutes. As for the experimental part: Mice were intranasally administered with 16% DMSO or a glycosylated GLP-2 derivative (3.0 nmol/mouse). The brain was isolated 15 minutes after the administration, and was subjected to infiltration fixation with 4% PFA overnight. On the day following the isolation, the brain was substituted with 30% sucrose overnight (4° C.). Thereafter, a frozen section of trigeminal lemniscus with a thickness of 30 μm was prepared using a cryostat (CM3050S; Leica Microsystems, WetZlar, Germany).
The frozen section was mounted on a slide glass, and was subjected to blocking for 30 minutes at room temperature with a blocking buffer. Thereafter, the section was added with a first antibody solution including Neuro-Chrom (trade name) Pan Neuronal Marker Antibody-Rabbit, diluted with a blocking buffer (1:500), and subjected to incubation overnight (4° C.). After washing three times with 1×PBS, the section was added with a first antibody solution including a GLP-2 polyclonal antibody diluted with a BSA/PBS solution (1:200), and subjected to incubation for 2 hours at room temperature. After washing three times with 1×PBS, the section was added with a second antibody solution including Alexa Fluor (trademark) 568 Goat Anti-Mouse IgG H&L, diluted 1000 times with a 1% BSA/PBS solution and DAPI ([…]), and subjected to incubation for 1 hour at room temperature. […]

The source of these data is US20240270811A1, “Glycosylated Neuropeptide Derivative, Pharmaceutical Composition, Intranasal/Nasal Drop Formulation, and Use of Pharmaceutical Composition” (Tokyo University of Science Foundation, priority 2021, published 2024).

Where no end group is shown, it is not given here. The star is where a group is joined. X1 = CC(=O)N[C@@H]1[C@@H](O)[C@H](O[C@@H]2O[C@H](CO)[C@@H](O[C@@H]3O[C@H](CO[C@H]4O[C@H](CO)[C@@H](O)[C@H](O)[C@@H]4O[C@@H]4O[C@H](CO)[C@@H](O[C@@H]5O[C@H](CO[C@]6(C(=O)O)C[C@H](O)[C@@H](NC(C)=O)[C@H]([C@H](O)[C@H](O)CO)O6)[C@H](O)[C@H](O)[C@H]5O)[C@H](O)[C@H]4NC(C)=O)[C@@H](O)[C@H](O[C@H]4O[C@H](CO)[C@@H](O)[C@H](O)[C@@H]4O[C@@H]4O[C@H](CO)[C@@H](O[C@@H]5O[C@H](CO[C@]6(C(=O)O)C[C@H](O)[C@@H](NC(C)=O)[C@H]([C@H](O)[C@H](O)CO)O6)[C@H](O)[C@H](O)[C@H]5O)[C@H](O)[C@H]4NC(C)=O)[C@@H]3O)[C@H](O)[C@H]2NC(C)=O)[C@@H](CO)O[C@H]1NC(=O)C*

Take “FFLIPKGRRRRRRRRGGHADGSFSDEMNTILDNLAARDFINWLIQTKITDC(X1)-OH [PAS-CPP-GLP-2 (11-sugar)]”: the “solubility in PBS” value in data set [1] (PBS) is listed as “completely soluble in PBS”. Further, the “solubility with respect to PBS (FIG. 1)” value in data set [1] (listed as GLP-2 derivatives (11-sugar)) is on record as “linearly improved”; in data set [1] (listed as glycosylated GLP-2 derivative (11-sugar)), “improved solubility”. Moreover, in data set [1] (mixed with PBS, 0.6 nmol/4 μL), the “state of derivative in PBS administration solution” value is recorded as “completely dissolved”. The tissue level at time molar at 20 min in data set [2] is 0.0106 ± 0.000998 nmol/g. Moreover, the “fluorescence in nerve bundle that constitutes the trigeminal lemniscus” value in data set [3] was “a large amount of fluorescence for a drug was observed”.
